Data published in paper PMC9181899, “Synthesis and Anticancer Properties of New 3-Methylidene-1-sulfonyl-2,3-dihydroquinolin-4(1H)-ones” (Molecules, 2022).
Where two headings read alike, the source gives them in different places.

Assays:
HL-60 cells [1] = assay: MTT in vitro cytotoxicity assay, HL-60; assay type: cell-based; settings: Homo sapiens
Experimental: The promyelocytic leukemia HL-60 and breast cancer adenocarcinoma MCF-7 cell lines were purchased from the European Collection of Cell Cultures (ECACC). Leukemia cells were cultured in RPMI 1640 plus GlutaMax I medium (Gibco/Life Technologies, Carlsbad, CA, USA). MCF-7 cells were maintained in Minimum Essential Medium Eagle (Sigma Aldrich, St. Louis, MO, USA) and supplemented with 2 mM glutamine and men non-essential amino acid solution (Sigma Aldrich, St. Louis, MO, USA). Both media were supplemented with 10% heat-inactivated fetal bovine serum (Biological Industries, Beit-Haemek, Israel) and antibiotics (100 U/mL penicillin and 100 μg/mL streptomycin) (Sigma-Aldrich, St. Louis, MO, USA). Human umbilical vein endothelial cells (HUVECs) were purchased from the American Type Culture Collection (ATCC). Cells were cultured using EGM-2 Endothelial Medium BulletKit purchased from Lonza (Lonza, Walkersville, MD, USA). Cells were maintained at 37 °C in 5% CO2 atmosphere and grown until 80% confluent.
The tested compounds were dissolved in sterile dimethyl sulfoxide (DMSO) and further diluted with culture medium. The final concentration of DMSO in cell cultures was less than 0.1% v/v. Controls without and with 0.1% DMSO were performed in each experiment. At the used concentration, DMSO had no effect on the observed parameters.
The MTT (3-(4,5-dimethylthiazol-2-yl)-2,5-diphenyltetrazolium bromide) assay, which measures the activity of cellular dehydrogenases, was performed according to the Mosmann method. Exponentially growing cells were seeded into 24-well plates at a density of 8 × 10^4 cells/mL and left to grow for 24 h. After 24 h or 48 h of incubation with various concentrations of the tested compounds (dissolved in DMSO and diluted with complete culture medium), cells were incubated with 0.1 mL of MTT solution (5 mg/mL in phosphate buffered saline) for 1.5 h. The metabolically active cells reduced MTT to blue formazan crystals. The plates were centrifuged, and the supernatant was discarded. DMSO (1 mL) was added to each well to dissolve the crystals, whose absorbance was measured at 560 nm using FlexStation 3 Multi-Mode Microplate Reader (Molecular Devices, LLC, San Jose, CA, USA). The untreated cells were used as control. The IC50 values were calculated from the concentration–response curves. The data were expressed as mean ± SEM of three independent experiments.

ABCB1 gene expression = assay: Real-time PCR of ABCB1 mRNA level in HL-60 cells; assay type: cell-based; settings: higher concentration (1.8 µM; 0.9 and 1.8 µM tested), 24 h
From the text: Overexpression of ATP-binding cassette (ABC) transporters causing multidrug resistance (MDR) in cancer cells is one of the major problems associated with poor therapeutic outcome of anticancer drugs. ABC transporters reduce the cellular uptake of drugs into cancer cells, defending them from medical interventions. In leukemia cells ABCB1 (P-glycoprotein), overexpression has been observed. […] It seemed interesting to determine if 3-methylidenequinolin-4-one 5a would also down-regulate ABCB1 mRNA levels in leukemia HL-60 cells. Here, we tested the ABCB1 gene expression of 5a at two concentrations, 0.9 and 1.8 µM. Compound 5a decreased the ABCB1 mRNA level at a higher concentration (Figure 6).
The mRNA level of the ABCB1 gene was assessed using quantitative real-time PCR. Briefly, HL-60 cells were seeded in 6-well plates (4.0 × 10^5 cells/mL) in 2 mL of growth medium and treated with 5a for 24 h. Total RNA was extracted using the Total RNA Mini Kit (A&A Biotechnology, Gdynia, Poland) according to the manufacturer’s protocol. The concentration of RNA used for further experiments was 500 ng. cDNA was synthesized using Transcriba Kit (A&A Biotechnology, Gdynia, Poland). […] The expression level of ABCB1 gene was determined by the 2^−∆∆CT method.

HL-60 cells [2] = assay: DNA damage by H2AX (pS139) staining, flow cytometry; assay type: cell-based, human; settings: 24 h; for increase of phosphorylated H2AX level: vs control
Experimental: To evaluate the anticancer potential of 5a, the ability of this compound to inhibit cell proliferation, induce apoptotic cell death, and generate DNA damage was examined by flow cytometry using the ‘Apoptosis, DNA Damage, and Cell Proliferation Kit’ (BD Bioscience). After 24 h treatment with 5a in increasing concentrations, HL-60 cells were exposed to bromodeoxyuridine (BrdU) for additional 8 h. Then, the cells were simultaneously stained with fluorochrome-labeled anti-BrdU, anti-cleaved PARP (Asp214) and anti-H2AX (pS139).
It is well documented that apoptosis induced by many anticancer drugs may be a consequence of DNA damage. Chemical genotoxins that target DNA can inhibit DNA replication, which leads to the collapse of replication forks and the formation of DNA double strand breaks (DSBs). The generation of DNA damage was evaluated using anti-H2AX (pS139) antibodies directed against the phosphorylated form of human H2AX protein at the pS139 residue that is considered to be a biomarker for DNA DSBs. The treatment of HL-60 cells with 5a increased the levels of phosphorylated H2AX by 4.7- and 7.8-fold (to 1.35 µM and 1.9 µM, respectively), indicating the dose-dependent genotoxic effect of the tested compound (Figure 4c).
Cell proliferation, DNA damage, and apoptotic cell death were determined using Apoptosis, DNA Damage, and Cell Proliferation Kit (BD Bioscience, San Jose, CA, USA), according to the manufacturer protocol. Briefly, HL-60 cells were seeded in 6-well plates (4.0 × 10^5 cells/mL) in 2 mL of growth medium and treated with 5a for 24 h. Afterwards, the bromodeoxyuridine (BrdU, 10 µM) was added and the cells were incubated for additional 8 h. Next, the cells were collected by centrifugation (300× g, 5 min), counted, fixed, and permeabilized according to the manufacturer’s instructions. The cells were incubated with DNase (300 µg/mL in PBS) for 1 h at 37 °C and then simultaneously stained with fluorochrome-labeled anti-BrdU, H2AX (pS139), and cleaved PARP (Asp214) antibodies, for 20 min at room temperature. After washing, DNA staining with DAPI (1 µg/mL of the staining buffer) was performed, and the cells were analyzed by flow cytometry using CytoFLEX (Beckman Coulter, Inc., Brea, CA, USA).

## C=C1C(=O)c2ccccc2N(S(=O)(=O)c2ccccc2)C1CC (stereo not shown) [Compound 5a, 2-Ethyl-3-methylidene-1-(phenylsulfonyl)-2,3-dihydroquinolin-4(1H)-one]
HL-60 cells [1]; HL-60, 24 h, 24 h incubation, read-out: IC50 HL-60 after 24 h incubation
  IC50: 910 ± 30 nM
HL-60 cells [1]; HL-60, 48 h, 48 h incubation, mean ± SEM, read-out: IC50 HL-60
  IC50: 340 ± 30 nM
ABCB1 gene expression
  ABCB1 mRNA level: decreased
HL-60 cells [2]; 1.35 µM
  increase of phosphorylated H2AX level: 4.7 fold
HL-60 cells [2]; 1.8 µM, Figure 3b
  Q1: H2AX (pS139) positive, cleaved PARP negative cells (representative plot): 5.0%
  Q2: H2AX (pS139) and cleaved PARP positive cells (representative plot): 13.2%
HL-60 cells [2]; 1.9 µM
  increase of phosphorylated H2AX level: 7.8 fold
